Measurements reported in patent publication EP0048613B1, “4-0-Substituted -2-deoxystreptamine aminoglycoside derivatives, their preparation and formulations containing them” (ELI LILLY AND COMPANY, priority 1980, dated 1982).

The substances below were run on B. subtilis X12 (assay: Bioautography of thin layer chromatography plate). Conditions: bioautography of TLC plate of the reaction mixture against B. subtilis X12.
Format: cell-based
Procedure: Apramycin (54 mg, 0.1 mmol) was dissolved in water (1 ml). Nickel acetate tetrahydrate (100 mg, 0.4 mmol) was added and this solution was diluted with dimethylformamide (5 mi). The mixture was treated with 1-iodo-n-butane (0.115 ml, 1 mmol) and this reaction mixture was stirred at room temperature for 4 days.

Substance	zone of inhibition
2'-N-(n-Butyl)apramycin [Example 6]	a zone of inhibition
2'-N-Benzylapramycin [Example 7]	a zone of inhibition
2'-N-Allylapramycin [Example 8]	a good zone of inhibition
